Reference: ChEMBL document CHEMBL3124761, “Synthesis and biological evaluation of N,N'-squaramides with high in vivo efficacy and low toxicity: toward a low-cost drug against Chagas disease” (J Med Chem, 2014)
Active and inactive are the calls of the source. The rule behind the calls is not given here.

Columns and labels:
Mus musculus [1] = assay: Toxicity in BALB/c albino mouse infected with blood trypomastigote stage of Trypanosoma cruzi assessed as increase in total bilirubin level in serum at 40 mg/kg, ip administered on day 7 to 12 post-infection measured after day 150 relative to control; format: organism-based; design: dose 40 mg/kg, route intraperitoneal; settings: in vivo
Mus musculus [2] = assay: Toxicity in BALB/c albino mouse infected with blood trypomastigote stage of Trypanosoma cruzi assessed as change in AST/GOT level in serum at 500 mg/kg, ip relative to control; format: organism-based; design: dose 500 mg/kg, route intraperitoneal; settings: in vivo
Mus musculus [3] = assay: Toxicity in BALB/c albino mouse infected with blood trypomastigote stage of Trypanosoma cruzi assessed as increase in AST/GOT level in serum at 25 mg/kg, ip administered on day 7 to 12 post-infection measured after day 120 relative to control; format: organism-based; design: dose 25 mg/kg, route intraperitoneal; settings: in vivo
Mus musculus [4] = assay: Toxicity in BALB/c albino mouse infected with blood trypomastigote stage of Trypanosoma cruzi assessed as increase in total bilirubin level in serum at 25 mg/kg, ip administered on day 7 to 12 post-infection measured after day 120 relative to control; format: organism-based; design: dose 25 mg/kg, route intraperitoneal; settings: in vivo
Mus musculus [5] = assay: Toxicity in BALB/c albino mouse infected with blood trypomastigote stage of Trypanosoma cruzi assessed as change in LDH level in serum at 500 mg/kg, ip relative to control; format: organism-based; design: dose 500 mg/kg, route intraperitoneal; settings: in vivo
Mus musculus [6] = assay: Toxicity in BALB/c albino mouse infected with blood trypomastigote stage of Trypanosoma cruzi assessed as change in urea level in serum at 40 mg/kg, ip administered on day 7 to 12 post-infection measured after day 150 relative to control; format: organism-based; design: dose 40 mg/kg, route intraperitoneal; settings: in vivo
Mus musculus [7] = assay: Toxicity in BALB/c albino mouse infected with blood trypomastigote stage of Trypanosoma cruzi assessed as change in urea level in serum at 25 mg/kg, ip administered on day 7 to 12 post-infection measured after day 120 relative to control; format: organism-based; design: dose 25 mg/kg, route intraperitoneal; settings: in vivo
Trypanosoma cruzi [8] = assay: Trypanocidal activity against blood trypomastigote stage of Trypanosoma cruzi infected in nonimmunosuppressed BALB/c albino mouse chronic chagas disease model assessed as increase in total Ig-G level at 40 mg/kg, ip administered on day 7 to 12 post-infection measured after day 150 by ELISA; format: functional, organism-based; design: dose 40 mg/kg
Trypanosoma cruzi [9] = assay: Trypanocidal activity against blood trypomastigote stage of Trypanosoma cruzi infected in immunosuppressed BALB/c albino mouse chronic chagas disease model assessed as increase in total Ig-G level at 40 mg/kg, ip administered on day 7 to 12 post-infection measured after day 150 by ELISA; format: functional, organism-based; design: dose 40 mg/kg
Trypanosoma cruzi [10] = assay: Trypanocidal activity against metacyclic trypomastigote stage of Trypanosoma cruzi infected in BALB/c albino mouse acute chagas disease model assessed as reduction of parasite burden at 25 mg/kg, ip administered on day 7 to 12 post-infection measured on day 14 by ELISA; format: functional, organism-based; design: dose 25 mg/kg
Trypanosoma cruzi [11] = assay: Antitrypanosomal activity against amastigote stage of Trypanosoma cruzi IRHOD/CO/2008/SN3 infected in African green monkey Vero cells assessed as decrease in infection rate at IC25 preincubated for 12 hrs followed by compound washout measured every 48 hrs for 10 days by Neubauer hemocytometric chamber analysis relative to control; format: functional
[12] = Selectivity index, ratio of IC50 for African green monkey Vero cells to IC50 for amastigote stage of Trypanosoma cruzi IRHOD/CO/2008/SN3 infected in African green monkey Vero cells; format: toxicity, cell-based; settings: read-out: Ratio IC50
[13] = Selectivity index, ratio of IC50 for African green monkey Vero cells to IC50 for epimastigote stage of Trypanosoma cruzi IRHOD/CO/2008/SN3; format: toxicity, cell-based; settings: read-out: Ratio IC50
Trypanosoma cruzi [14] = assay: Antitrypanosomal activity against amastigote stage of Trypanosoma cruzi IRHOD/CO/2008/SN3 infected in African green monkey Vero cells assessed as parasite growth inhibition after 72 hrs by Giemsa staining-based microscopic analysis; format: functional, organism-based; settings: IRHOD/CO/2008/SN3, Vero
Trypanosoma cruzi [15] = assay: Antitrypanosomal activity against epimastigote stage of Trypanosoma cruzi IRHOD/CO/2008/SN3 assessed as change in excreted alanine level at IC25 after 96 hrs by 1H NMR analysis relative to control; format: functional
Trypanosoma cruzi [16] = assay: Antitrypanosomal activity against epimastigote stage of Trypanosoma cruzi IRHOD/CO/2008/SN3 assessed as change in excreted lactate level at IC25 after 96 hrs by 1H NMR analysis relative to control; format: functional

With CCCCNc1c(N(C)CCCN(C)C)c(=O)c1=O as the compound, how does the Activity (Mus musculus [1]) read?
The Activity was 30%.

And the Activity (Mus musculus [2])?
The Activity was less than 10%.

And the Activity (Mus musculus [3])?
The Activity was 10%.

And the Activity (Mus musculus [4])?
Its Activity is 10%.

And the Activity (Mus musculus [5])?
Its Activity is less than 10%.

And the Activity (Mus musculus [6])?
The Activity was less than 10%.

What about the Activity (Mus musculus [7]) of the same compound?
The Activity was less than 10%.

What about the Activity (Trypanosoma cruzi [8]) of the same compound?
Its Activity is “Active”.

And the Activity (Trypanosoma cruzi [9])?
Its Activity is “Active”.

And the Activity (Trypanosoma cruzi [10])?
Its Activity is “Active”.

What about the “inhibition (INH)” value (Trypanosoma cruzi [11]) of the same compound?
Its value is 67%.

What about the selectivity ratio [12] of the same compound?
Its selectivity ratio is 53.3.

What about the selectivity ratio [13] of the same compound?
Its selectivity ratio is 48.2.

What about the IC50 (Trypanosoma cruzi [14]) of the same compound?
The IC50 was 8.5 µM.

What about the Activity (Trypanosoma cruzi [15]) of the same compound?
The Activity was -18.5%.

What about the Activity (Trypanosoma cruzi [16]) of the same compound?
Its Activity is -28.3%.
